The results in this text go back to ChEMBL document CHEMBL1137662, “Effect of oral treatment with hexadecyloxypropyl-[(S)-9-(3-hydroxy-2- phosphonylmethoxypropyl)adenine] [(S)-HPMPA] or octadecyloxyethyl-(S)-HPMPA on cowpox or vaccinia virus infections in mice” (Antimicrob Agents Chemother, 2007).

Data set [1] relates to Cowpox virus. Briefly: Antiviral activity against Cowpox virus Brighton infected BALB/c mouse assessed as mortality at 30 mg/kg, po treated for 5 days after 24 hrs of viral inoculation. The format is functional, Cowpox virus (Brighton Red).
The nature of data set [2]: Cytotoxicity against HFF cells after 7 days. The format is cell-based. Particulars: human.
Data set [3] has as its system Cowpox virus. Description: Antiviral activity against Cowpox virus Brighton infected BALB/c mouse assessed as mortality at 30 mg/kg, po treated for 5 days after 72 hrs of viral inoculation. The data set is classed as functional, Cowpox virus (Brighton Red).
Data set [4] concerns Cowpox virus. Description: Antiviral activity against Cowpox virus Brighton infected BALB/c mouse assessed as mean death day at 30 mg/kg, po treated for 5 days after 48 hrs of viral inoculation. The data set is classed as functional, Cowpox virus (Brighton Red).
For data set [5], the system named is Vaccinia virus. Briefly: Antiviral activity against Vaccinia virus WR infected BALB/c mouse assessed as mean death day at 10 mg/kg, po treated for 5 days after 72 hrs of viral inoculation. The data set is classed as functional, Orthopoxvirus vaccinia.
Data set [6] concerns Vaccinia virus. Description: Antiviral activity against Vaccinia virus WR infected BALB/c mouse assessed as mortality at 30 mg/kg, po treated for 5 days after 48 hrs of viral inoculation. The format is functional, Orthopoxvirus vaccinia.
Data set [7] deals with Vaccinia virus. Description: Antiviral activity against Vaccinia virus WR infected BALB/c mouse assessed as log reduction of viral titer per gram of kidney at 30 mg/kg, po treated for 5 days after 24 hrs of viral inoculation. The format is functional, Orthopoxvirus vaccinia.
Data set [8] deals with Cowpox virus. Briefly: Antiviral activity against Cowpox virus Brighton infected BALB/c mouse assessed as mean death day at 3 mg/kg, po treated for 5 days after 48 hrs of viral inoculation. The format is functional, Cowpox virus (Brighton Red).
Data set [9] concerns Cowpox virus. Briefly: Antiviral activity against Cowpox virus Brighton infected BALB/c mouse assessed as log reduction of viral titer per gram of spleen at 30 mg/kg, po treated for 5 days after 24 hrs of viral inoculation. The format is functional, Cowpox virus (Brighton Red).
In data set [10] the test system is Vaccinia virus. Description: Antiviral activity against Vaccinia virus WR infected BALB/c mouse assessed as mean death day at 3 mg/kg, po treated for 5 days after 24 hrs of viral inoculation. The data set is classed as functional, Orthopoxvirus vaccinia.
Data set [11] deals with Vaccinia virus. Description: Antiviral activity against Vaccinia virus WR infected BALB/c mouse assessed as mortality at 10 mg/kg, po treated for 5 days after 48 hrs of viral inoculation. The data set is classed as functional, Orthopoxvirus vaccinia.
Data set [12] concerns Cowpox virus. Briefly: Antiviral activity against Cowpox virus Brighton infected BALB/c mouse assessed as mean death day at 3 mg/kg, po treated for 5 days after 72 hrs of viral inoculation. The format is functional, Cowpox virus (Brighton Red).
Data set [13] has as its system Mus musculus. Briefly: Plasma concentration in Swiss Webster mouse at 10 mg/kg, ip after 24 hrs by liquid scintillation counting. The data set is classed as ADME, organism-based. Also noted: dose 10 mg/kg, route intraperitoneal. Particulars: in vivo.
Data set [14] deals with Kidney. Briefly: Drug level in Swiss Webster mouse kidney at 10 mg/kg, ip after 1 hr. The data set is classed as ADME, organism-based. More on the design: dose 10 mg/kg, route intraperitoneal. Particulars: in vivo.
Data set [15] deals with Liver. Description: Drug level in Swiss Webster mouse liver at 10 mg/kg, po after 3 hrs. Particulars: in vivo. More on the design: dose 10 mg/kg, route oral. The data set is classed as ADME, organism-based.
Data set [16] is described as follows: Cmax in Swiss Webster mouse at 10 mg/kg, ip. The format is ADME, organism-based. More on the design: dose 10 mg/kg, route intraperitoneal. Particulars: in vivo.
Data set [17] deals with Mus musculus. Description: Plasma concentration in Swiss Webster mouse at 10 mg/kg, po after 24 hrs by liquid scintillation counting. The conditions noted are these: in vivo. Also noted: dose 10 mg/kg, route oral. The data set is classed as ADME, organism-based.
Data set [18] can be described thus: Tmax in Swiss Webster mouse at 10 mg/kg, po. Also noted: dose 10 mg/kg, route oral. The conditions noted are these: in vivo. The format is ADME, organism-based.
The subject of data set [19] is Mus musculus. Briefly: AUC (0 to 24hrs) in Swiss Webster mouse plasma at 10 mg/kg, po. The format is ADME, organism-based. More on the design: time < 24 hr, dose 10 mg/kg, route oral. The conditions noted are these: in vivo.
The test system of data set [20] is Mus musculus. Description: AUC (0 to 24hrs) in Swiss Webster mouse plasma at 10 mg/kg, ip. The data set is classed as ADME, organism-based. More on the design: time < 24 hr, dose 10 mg/kg, route intraperitoneal. Particulars: in vivo.
The nature of data set [21]: Tmax in Swiss Webster mouse at 10 mg/kg, ip. The data set is classed as ADME, organism-based. Also noted: dose 10 mg/kg, route intraperitoneal. The conditions noted are these: in vivo.
The subject of data set [22] is Kidney. Description: Drug level in Swiss Webster mouse kidney at 10 mg/kg, po after 3 hrs. The data set is classed as ADME, organism-based. More on the design: dose 10 mg/kg, route oral. Particulars: in vivo.
Data set [23] is described as follows: Half life in Swiss Webster mouse at 10 mg/kg, po. Particulars: in vivo. Also noted: dose 10 mg/kg, route oral. The format is ADME, organism-based.
Data set [24] is described as follows: Oral bioavailability in Swiss Webster mouse at 10 mg/kg. The data set is classed as ADME, organism-based. The conditions noted are these: in vivo.
The subject of data set [25] is Liver. Description: Drug level in Swiss Webster mouse liver at 10 mg/kg, ip after 1 hr. The data set is classed as ADME, organism-based. More on the design: dose 10 mg/kg, route intraperitoneal. Particulars: in vivo.
Data set [26] can be described thus: Half life in Swiss Webster mouse at 10 mg/kg, ip. The data set is classed as ADME, organism-based. Also noted: dose 10 mg/kg, route intraperitoneal. Particulars: in vivo.
Data set [27] has as its system Lung. Description: Drug level in Swiss Webster mouse lung at 10 mg/kg, po after 3 hrs. The format is ADME, organism-based. Also noted: dose 10 mg/kg, route oral. Particulars: in vivo.
Data set [28] deals with Lung. Description: Drug level in Swiss Webster mouse lung at 10 mg/kg, ip after 1 hr. The data set is classed as ADME, organism-based. More on the design: dose 10 mg/kg, route intraperitoneal. Particulars: in vivo.
The nature of data set [29]: Cmax in Swiss Webster mouse at 10 mg/kg, po. The data set is classed as ADME, organism-based. Also noted: dose 10 mg/kg, route oral. Particulars: in vivo.

Molecules are shown by their SMILES.

As for `CCCCCCCCCCCCCCCCCCOCCOP(=O)(O)CO[C@H](CO)Cn1cnc2c(N)ncnc21`, the Activity in data set [1] stood at 7%; in [3], 33%; in data set [4], 9.5 days; in data set [5], 9 days; in data set [6], 40%; in data set [8], 10.6 days. The Activity came to 8.8 days in [10], 20% in data set [11] and 11.1 days in data set [12]. Besides, half-maximal cytotoxicity in data set [2] (CC50 at 168 h) was put at 1.5 µM. Further, the log10PFU is recorded as 4 g in data set [7] and 2.5 g in data set [9].
Consider `CCCCCCCCCCCCCCCCOCCCOP(=O)(O)CO[C@H](CO)Cn1cnc2c(N)ncnc21`, for which the concentration in data set [13] amounted to 80 nM; in [17], 30 nM. For the same molecule, the Activity is 13% in [1]; 13% in data set [3]; 16.5 days in data set [4]; 9.1 days in data set [5]; 7% in [6]; 12.7 days in [8]. Moreover, the Activity turned out to be 7 days in [10], 13% in [11] and 10.1 days in data set [12]. The half-maximal cytotoxic concentration (CC50) – broadly, the concentration at which the toxic effect on the cells reaches its halfway point – at 168 h in data set [2] was 9.7 µM. In addition, the Drug uptake in [14] is on record as 23 nmol/g; in data set [15], 21 nmol/g; in [22] it was 5.1 nmol/g; in data set [25] it was 130 nmol/g; in [27] it was 1.9 nmol/g; in data set [28], 2.8 nmol/g. The values for the Cmax in data set [16] and in data set [29] were 2200 nM and 1100 nM, respectively. The time to peak (Tmax) (commonly the time at which the peak concentration occurs) worked out at 1 h in data set [18] and 3 h in data set [21]. Also, the AUC amounted to 12.1 nmol·h/g in data set [19] and 16.4 nmol·h/g in [20]. Besides, the values for the log10PFU in data set [7] and in [9] were 4 g and 2.5 g, respectively. Also, the half-life (commonly how long it takes for the measured level to halve) was 11.5 h in data set [23] and 2.5 h in [26]. Further, in [24], the bioavailability (commonly the share of a dose that reaches the circulation, judged against a reference dose that is usually intravenous) came out at 74%.
